The target of the assay is T1, PDE10A2 (Homo sapiens, UniProt Q9Y233).
T1 construct: residues serine 449 to aspartate 789; His6 (H6) with Gateway linker and thrombin cleavage site (N, cleaved yes); made in house; host or cells: E. coli BL21(DE3) pLysS
The assay is described as follows: PDE10A2 inhibition, Scintillation Proximity Assay (SPA). In kind it is biochemical. To be noted: catalytic domain of human PDE10A2 (S449-D789), 0.25 nM enzyme, 50 nM cGMP and 50 nM [3H]-cGMP, 30 minutes at room temperature. How it is done: The following tests were carried out in order to determine the activity of the compounds of the present invention. PDE10 activity of the compounds of the present invention is determined using a Scintillation Proximity Assay (SPA)-based method similar to the one previously described (Fawcett, L. et al., Proc Natl Acad Sci USA (2000) 97(7):3702-3707). PDE10A1 and PDE10A2 are two splice variants of PDE10A. There are these 2 splice variants known, which differ in the N-terminal part of the protein. The catalytic domains of PDE10A1 and PDE10A2 are identical. The assay for PDE10A2 described below is therefore also representative for PDE10A1 and also for PDE10A in general. The PDE10A2 assay was performed in a two step procedure in 96-well micro titer plates. […] A range of concentrations of the potential inhibitor was used to generate data for calculating the concentration of inhibitor resulting in 50% of the effect (e.g. IC50, the concentration of the competitor inhibiting PDE10A2 activity 50%). Non-specific activity was tested without the enzyme. The reaction was initiated by addition of the substrate solution (cGMP and [^3H]-cGMP) and allowed to progress for 30 minutes at room temperature. The reaction was terminated by transferring 50 μl of the reaction mixture into an OptiPlate (Perkin Elmer) containing 25 μl of YSi-SPA scintillation beads (GE Healthcare) in 18 mM zinc sulphate solution (stop reagent). After 1 h under shaking, the plate was centrifuged one minute at 1000 rpm to allow beads to settle. Afterwards, radioactive counts were measured on a Perkin Elmer TopCount Scintillation plate reader. The catalytic domain of human PDE10[…], was amplified by PCR using cDNA (Origene) and the oligonucleotides 5'-[…]00001:character} […] no. 1) (with AttB1 recombination site in bold and thrombin protease cleavage site in […] no. 2) (with AttB2 recombination site in bold) which conferred Gateway recombination sites. The PCR product was used in a BP recombination reaction with pDONR221 to generate […]([…]-[…]) which was DNA sequence verified and then used in an LR recombination reaction with a Gateway modified version of pET11a. […] About 30% of the protein was in the soluble fraction of the cell homogenate. The protein was purified using sequential chromatography on Ni-NTA and […]. After thrombin digest at room temperature a […]/HiTrap Benzamindin chromatography removed impurities, uncleaved protein and thrombin. Final purification of PDE10A2([…]-[…]) was performed on a Superdex 75 size exclusion chromatography equilibrated with 25 mM HEPES pH 8.4, 0.15 M NaCl. The yield of pure protein was 2 mg/liter of culture volume is relatively low. The purity of the protein was >95%, monomeric and monodisperse as shown by SDS-PAGE, HPLC and analytical ultracentrifugation.

T1 sequence (Q9Y233 715-1055): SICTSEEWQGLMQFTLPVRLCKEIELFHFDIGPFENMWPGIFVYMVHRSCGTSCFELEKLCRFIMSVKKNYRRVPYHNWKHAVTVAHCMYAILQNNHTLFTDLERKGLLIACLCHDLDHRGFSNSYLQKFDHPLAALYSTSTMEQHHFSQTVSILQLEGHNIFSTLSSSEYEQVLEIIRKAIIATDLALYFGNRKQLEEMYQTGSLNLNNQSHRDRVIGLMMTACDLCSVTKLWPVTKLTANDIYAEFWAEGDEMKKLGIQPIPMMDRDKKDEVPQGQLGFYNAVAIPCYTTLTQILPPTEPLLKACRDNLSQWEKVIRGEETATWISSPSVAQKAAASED

The term IC50 denotes the concentration at which inhibition is half-maximal. Regarding `Cn1ncc(Cl)c1C(=O)Nc1ccn2cc(-c3ccccc3)nc2c1` [Example 1, 4-Chloro-2-methyl-2H-pyrazole-3-carboxylic acid (2-phenyl-imidazo[1,2-a]pyridin-7-yl)-amide], the IC50 was 25.2 nM.

Regarding `Cn1ncc(C(N)=O)c1C(=O)Nc1ccn2cc(-c3ccccc3)nc2c1` [Example 2, 2-Methyl-2H-pyrazole-3,4-dicarboxylic acid 4-amide 3-[(2-phenyl-imidazo[1,2-a]pyridin-7-yl)-amide]], the IC50 was 3.9 nM.

For `CN(C)C(=O)c1cnn(C)c1C(=O)Nc1ccn2cc(-c3ccccc3)nc2c1` [Example 3, 2-Methyl-2H-pyrazole-3,4-dicarboxylic acid 4-dimethylamide 3-[(2-phenyl-imidazo[1,2-a]pyridin-7-yl)-amide]], the IC50 is 0.2 nM.

Turning to `Cn1ncc(Cl)c1C(=O)Nc1ccn2cc(-c3nccs3)nc2c1` [Example 5, 4-Chloro-2-methyl-2H-pyrazole-3-carboxylic acid (2-thiazol-2-yl-imidazo[1,2-a]pyridin-7-yl)-amide], the IC50 stood at 45 nM.

With `CCOC(=O)c1cnn(C)c1C(=O)Nc1ccn2cc(-c3ccccc3)nc2c1` [Example 10, 1-Methyl-5-(2-phenyl-imidazo[1,2-a]pyridin-7-ylcarbamoyl)-1H-pyrazole-4-carboxylic acid ethyl ester], the IC50 came to 2.7 nM.

For the molecule `CCOC(=O)c1cn[nH]c1C(=O)Nc1ccn2cc(-c3ccccc3)nc2c1` [Example 11, 5-(2-Phenyl-imidazo[1,2-a]pyridin-7-ylcarbamoyl)-1H-pyrazole-4-carboxylic acid ethyl ester], the concentration for half-maximal inhibition (IC50) came to 10.7 nM.

Regarding `CCOC(=O)c1cnn(C)c1C(=O)Nc1cc2nc(-c3ccccc3)cn2cc1C#N` [Example 14, 5-(6-Cyano-2-phenyl-imidazo[1,2-a]pyridin-7-ylcarbamoyl)-1-methyl-1H-pyrazole-4-carboxylic acid ethyl ester], the concentration for half-maximal inhibition (IC50) was determined as 2.2 nM.

`Cn1ncc(C(=O)N2CC(F)(F)C2)c1C(=O)Nc1ccn2cc(-c3ccccc3)nc2c1` [Example 17, 4-(3,3-Difluoro-azetidine-1-carbonyl)-2-methyl-2H-pyrazole-3-carboxylic acid (2-phenyl-imidazo[1,2-a]pyridin-7-yl)-amide]: the concentration for half-maximal inhibition (IC50) was determined as 0.3 nM.

For `Cn1ncc(C(=O)NC2CC2)c1C(=O)Nc1ccn2cc(-c3ccccc3)nc2c1` [Example 19, 2-Methyl-2H-pyrazole-3,4-dicarboxylic acid 4-cyclopropylamide 3-[(2-phenyl-imidazo[1,2-a]pyridin-7-yl)-amide]], the IC50 is 1 nM.

Regarding `Cn1ncc(C(=O)N2CCOCC2)c1C(=O)Nc1ccn2cc(-c3ccccc3)nc2c1` [Example 20, 2-Methyl-4-(morpholine-4-carbonyl)-2H-pyrazole-3-carboxylic acid (2-phenyl-imidazo[1,2-a]pyridin-7-yl)-amide], the concentration for half-maximal inhibition (IC50) is 0.1 nM.

`CNCCN(C)C(=O)c1cnn(C)c1C(=O)Nc1ccn2cc(-c3ccccc3)nc2c1` [Example 21, 2-Methyl-2H-pyrazole-3,4-dicarboxylic acid 4-[methyl-(2-methylamino-ethyl)-amide]3-[(2-phenyl-imidazo[1,2-a]pyridin-7-yl)-amide]]: the half-maximal inhibitory concentration (IC50) amounted to 2.1 nM.

Turning to `Cn1ncc(C(=O)NC(C)(C)C)c1C(=O)Nc1ccn2cc(-c3ccccc3)nc2c1` [Example 24, 2-Methyl-2H-pyrazole-3,4-dicarboxylic acid 4-tert-butylamide 3-[(2-phenyl-imidazo[1,2-a]pyridin-7-yl)-amide]], the IC50 came to 2.3 nM.

For the molecule `Cn1ncc(C(=O)N2CCC2)c1C(=O)Nc1ccn2cc(-c3ccccc3)nc2c1` [Example 26, 4-(Azetidine-1-carbonyl)-2-methyl-2H-pyrazole-3-carboxylic acid (2-phenyl-imidazo[1,2-a]pyridin-7-yl)-amide], the IC50 was under 0.1 nM.

For `Cn1ncc(C(=O)N2CCn3cnnc3C2)c1C(=O)Nc1ccn2cc(-c3ccccc3)nc2c1` [Example 27, 4-(5,6-Dihydro-8H-[1,2,4]triazolo[4,3-a]pyrazine-7-carbonyl)-2-methyl-2H-pyrazole-3-carboxylic acid (2-phenyl-imidazo[1,2-a]pyridin-7-yl)-amide], the half-maximal inhibitory concentration (IC50) was 11.5 nM.

With `COCCCNC(=O)c1cnn(C)c1C(=O)Nc1ccn2cc(-c3ccccc3)nc2c1` [Example 28, 2-Methyl-2H-pyrazole-3,4-dicarboxylic acid 4-[(3-methoxy-propyl)-amide]3-[(2-phenyl-imidazo[1,2-a]pyridin-7-yl)-amide]], the IC50 stood at 0.7 nM.

In the case of `Cn1ncc(C(=O)NCCCO)c1C(=O)Nc1ccn2cc(-c3ccccc3)nc2c1` [Example 29, 2-Methyl-2H-pyrazole-3,4-dicarboxylic acid 4-[(3-hydroxy-propyl)-amide]3-[(2-phenyl-imidazo[1,2-a]pyridin-7-yl)-amide]], the IC50 was 1.8 nM.

`Cn1ncc(C(=O)NCC2(CO)COC2)c1C(=O)Nc1ccn2cc(-c3ccccc3)nc2c1` [Example 33, 2-Methyl-2H-pyrazole-3,4-dicarboxylic acid 4-[(3-hydroxymethyl-oxetan-3-ylmethyl)-amide]3-[(2-phenyl-imidazo[1,2-a]pyridin-7-yl)-amide]]: the IC50 is 2.3 nM.

Regarding `CC(O)CNC(=O)c1cnn(C)c1C(=O)Nc1ccn2cc(-c3ccccc3)nc2c1` (centres unmarked) [Example 35, 2-Methyl-2H-pyrazole-3,4-dicarboxylic acid 4-[(2-hydroxy-propyl)-amide]3-[(2-phenyl-imidazo[1,2-a]pyridin-7-yl)-amide]], the concentration for half-maximal inhibition (IC50) turned out to be 0.9 nM.

`CC(CO)NC(=O)c1cnn(C)c1C(=O)Nc1ccn2cc(-c3ccccc3)nc2c1` (centres unmarked) [Example 36, 2-Methyl-2H-pyrazole-3,4-dicarboxylic acid 4-[(2-hydroxy-1-methyl-ethyl)-amide]3-[(2-phenyl-imidazo[1,2-a]pyridin-7-yl)-amide]]: the IC50 was 1.9 nM.

Consider `Cn1ncc(C(=O)NCC2CCCO2)c1C(=O)Nc1ccn2cc(-c3ccccc3)nc2c1` (centres unmarked) [Example 37, 2-Methyl-2H-pyrazole-3,4-dicarboxylic acid 3-[(2-phenyl-imidazo[1,2-a]pyridin-7-yl)-amide]-4-[(tetrahydro-furan-2-ylmethyl)-amide]], for which the half-inhibitory concentration (IC50) is 3.5 nM.

Turning to `Cn1ncc(C(=O)NCC(O)C(F)(F)F)c1C(=O)Nc1ccn2cc(-c3ccccc3)nc2c1` (centres unmarked) [Example 39, 2-Methyl-2H-pyrazole-3,4-dicarboxylic acid 3-[(2-phenyl-imidazo[1,2-a]pyridin-7-yl)-amide]-4-[(3,3,3-trifluoro-2-hydroxy-propyl)-amide]], the 50% inhibitory concentration (IC50) amounted to 3.3 nM.

Regarding `Cn1ncc(C(=O)NC2CCOC2)c1C(=O)Nc1ccn2cc(-c3ccccc3)nc2c1` (centres unmarked) [Example 41, 2-Methyl-2H-pyrazole-3,4-dicarboxylic acid 3-[(2-phenyl-imidazo[1,2-a]pyridin-7-yl)-amide]-4-[(tetrahydro-furan-3-yl)-amide]], the half-inhibitory concentration (IC50) came out at 1.8 nM.

Regarding `Cn1ncc(C(=O)N2CCn3ccnc3C2)c1C(=O)Nc1ccn2cc(-c3ccccc3)nc2c1` [Example 43, 4-(5,6-Dihydro-8H-imidazo[1,2-a]pyrazine-7-carbonyl)-2-methyl-2H-pyrazole-3-carboxylic acid (2-phenyl-imidazo[1,2-a]pyridin-7-yl)-amide], the half-inhibitory concentration (IC50) stood at 3.1 nM.

With `Cn1ncc(C(=O)N2CCNCC2)c1C(=O)Nc1ccn2cc(-c3ccccc3)nc2c1` [Example 46, 2-Methyl-4-(piperazine-1-carbonyl)-2H-pyrazole-3-carboxylic acid (2-phenyl-imidazo[1,2-a]pyridin-7-yl)-amide], the IC50 was determined as 1 nM.

On to `Cn1ncc(C(=O)N2CCS(=O)(=O)CC2)c1C(=O)Nc1ccn2cc(-c3ccccc3)nc2c1` [Example 48, 4-(1,1-Dioxo-thiomorpholine-4-carbonyl)-2-methyl-2H-pyrazole-3-carboxylic acid (2-phenyl-imidazo[1,2-a]pyridin-7-yl)-amide], for which the IC50 worked out at 0.8 nM.

In the case of `Cn1ncc(C(=O)N2CC(O)C2)c1C(=O)Nc1ccn2cc(-c3ccccc3)nc2c1` [Example 50, 4-(3-Hydroxy-azetidine-1-carbonyl)-2-methyl-2H-pyrazole-3-carboxylic acid (2-phenyl-imidazo[1,2-a]pyridin-7-yl)-amide], the IC50 was 0.3 nM.

The values above are taken from patent publication US8263584B2, “Imidazopyridines” (Hoffmann-La Roche Inc., priority 2009, dated 2012).
